Data taken from patent publication US20250170100A1, “MONOACYLGLYCEROL LIPASE INHIBITORS AND USE THEREOF FOR THE TREATMENT OF ANXIETY AND RELATED CONDITIONS” (Psy Therapeutics, Inc., priority 2021, published 2025).

Assays:
[1] = target: human MAGL (Homo sapiens (Human), UniProt Q99685); experiment: MAGL reversible inhibition assay (washout); assay type: biochemical; settings: pre-washout compound concentration: 1 μM
Description: The reversible mechanism of MAGL inhibition of a test compound of Formula (I) can be determined. Flag-tagged MAGL enzyme will be immobilized on anti-Flag beads. Immobilized enzyme will be incubated+/−inhibitor at a dose that produces complete inhibition. Colorimetric substrate (4-NPA) will be added and the reaction monitored on a plate reader for 30 minutes to verify complete inhibition. Immobilized enzyme will then be washed thoroughly to remove the inhibitor, and fresh substrate will be added. The reaction will be monitored for an additional 30 minutes; returning enzymatic activity will indicate reversibility of inhibition.
MAGL enzyme was incubated for 30 minutes in the presence of 40× the IC50 concentration of inhibitor. Enzyme+inhibitor mix was then diluted 40-fold so that the final concentration of the inhibitor equaled the IC50 concentration. Substrate was added and the reaction was monitored for 30 minutes.

[2] = Pharmacokinetic study of compounds in mice (brain, oral); assay type: in vivo, male C57BL/6 mice; settings: 5 mg/kg
Description: Healthy male C57BL/6 mice (8-12 weeks old) weighing between 17 to 35 g were procured from Global, India. Temperature and humidity were maintained at 22±3° C. and 30-70%, respectively and illumination was controlled to give a sequence of 12 hr light and 12 hr dark cycle. Temperature and humidity were recorded by auto-controlled data logger system. All the animals were provided laboratory rodent diet. Reverse osmosis water treated with ultraviolet light was provided ad libitum.
Protocol A: Twenty-four male mice were divided into two groups as; Group 1:30 mg/kg/IP, Plasma and brain; Number of animals=12; Animal #1-12. Group 2:30 mg/kg/PO; Plasma and brain; Number of animals=12; Animal #13-24. […] All samples were processed for analysis by protein precipitation using acetonitrile and analyzed with fit-for-purpose LC/MS/MS method (LLOQ-2.02 ng/mL for plasma and 6.06 ng/g for brain). Pharmacokinetic parameters were calculated using the non-compartmental analysis tool of Phoenix WinNonlin®.
Protocol B: Thirty six mice were included into the study and divided in to three groups as Group 1 (n=12), Group 2 (n=12) and Group 3 (n=12) with n=2 mice per time-point design. […] Plasma and brain samples were quantified by fit-for-purpose LC-MS/MS method (LLOQ: 1.01 ng/mL for plasma and 2.02 ng/ml for brain). […]

[3] = Plasma and brain concentrations after single intraperitoneal administration of Compound 473; assay type: in vivo, male C57BL/6 mice; settings: male, C57BL/6, mouse, IP 20 mg/kg, read-out: Brain/Plasma Ratio (kp) (mean)
Description: (§1) This experiment was performed to determine plasma pharmacokinetics and estimate 2-AG levels in male C57BL/6 mice brain following a single intraperitoneal administration of Compound-473 (Dose: 20 mg/kg).
(§2) Study Design: A total of twelve C57BL/6 male mice were used in this study. Six animals were administered intraperitoneally with solution formulation of PSY-05-00473-002 at 20 mg/kg dose. Six animals were administered vehicle (5% NMP, 5% Solutol HS15 and 90% Normal saline) intraperitoneally at 10 mL/kg dose volume. Blood samples (approximately 60 μL) were collected under light isoflurane anesthesia from a set of six mice at 0.5 h. Plasma was harvested by centrifugation of blood and stored at −70±10° C. until analysis. After blood collection, mice were euthanized by cervical dislocation and brain samples were dissected rapidly and snapped frozen in liquid nitrogen and stored at −80. To homogenize, removed brain samples from the freezer, were divided into two equal hemispheres and weighed while still in frozen condition, and begun homogenization/extraction procedure without allowing the brain samples to thaw. […]
(§3) Analysis: For PK estimation, brain samples were homogenized in 2 volumes of PBS of brain weight. […] Plasma and brain homogenate samples were quantified by fit-for-purpose LC-MS/MS method (LLOQ: 1.02 ng/mL for plasma and 2.03 ng/ml for brain).

[4] = test system: 2-AG levels in brain; experiment: 2-AG estimation in mouse brain after single intraperitoneal administration of Compound 473; assay type: in vivo, male C57BL/6 mice; settings: IP 20 mg/kg, 0.5 h
Description: as §1, §2, §3

[5] = target: human recombinant FAAH (Homo sapiens (Human), UniProt O00519); experiment: FAAH counter screen (Fatty Acid Amide Hydrolase Inhibitor Screening Assay Kit); assay type: biochemical; settings: Method B: starting concentration of 10 μM
Description: MAGL inhibitor compounds were also counter-screened for FAAH inhibition potency using the following assay. Assessment of FAAH inhibition was performed using Fatty Acid Amide Hydrolase Inhibitor Screening Assay Kit (Cayman Item No. 10005196) following manufacture's instruction with some modifications. The kit utilizes human recombinant FAAH and the fluorescent substrate, AMC Arachidonoyl amide (AAMCA). 5 μL of assay buffer (125 mM Tris, pH 9.0, 1 mM EDTA, i.e. ethylenediaminetetraacetic acid) was added to a 384-well black plate (Corning, 3573). Test compounds and control inhibitor JZL-195 (Cayman Chemical, 13668) were tested in 10-concentration IC50 mode with 3-fold serial dilution at a starting concentration of 100 μM and 10 μM, respectively. 300 nL or 30 nL of test compounds were delivered into a 384-well black plate (Corning, 3573) using a Labcyte Echo, followed by addition of 15 μL of FAAH enzyme (Cayman, 700302) in assay buffer. After a 5-minute pre-incubation at room temperature, 10 μL of AAMCA was added in assay buffer to start the reaction. Final concentration of FAAH enzyme is not specified and AAMCA substrate was used at the 20 μM. After these dilutions, the final concentration of the test compounds ranged from 100 μM to 5.08 nM or 10 μM down to 0.508 nM. The reaction was allowed to progress for 60 minutes, while the plate was read on an Envision plate reader at an Ex/Em of 350/460 nm with readings every minute. The data was analyzed in Microsoft Excel, using the slope between 30 and 59 minutes. The average of the no-enzyme wells (background) was subtracted from the data. The background-subtracted slope data was converted to % activity using the average of wells with enzyme and DMSO vehicle. IC50 values were calculated using GraphPad software (Sigmoidal dose response, variable slope equation).
Compounds listed in Table D2 were tested in the FAAH Counterscreen of Example 19

Chain of human recombinant FAAH (O00519 whole entry): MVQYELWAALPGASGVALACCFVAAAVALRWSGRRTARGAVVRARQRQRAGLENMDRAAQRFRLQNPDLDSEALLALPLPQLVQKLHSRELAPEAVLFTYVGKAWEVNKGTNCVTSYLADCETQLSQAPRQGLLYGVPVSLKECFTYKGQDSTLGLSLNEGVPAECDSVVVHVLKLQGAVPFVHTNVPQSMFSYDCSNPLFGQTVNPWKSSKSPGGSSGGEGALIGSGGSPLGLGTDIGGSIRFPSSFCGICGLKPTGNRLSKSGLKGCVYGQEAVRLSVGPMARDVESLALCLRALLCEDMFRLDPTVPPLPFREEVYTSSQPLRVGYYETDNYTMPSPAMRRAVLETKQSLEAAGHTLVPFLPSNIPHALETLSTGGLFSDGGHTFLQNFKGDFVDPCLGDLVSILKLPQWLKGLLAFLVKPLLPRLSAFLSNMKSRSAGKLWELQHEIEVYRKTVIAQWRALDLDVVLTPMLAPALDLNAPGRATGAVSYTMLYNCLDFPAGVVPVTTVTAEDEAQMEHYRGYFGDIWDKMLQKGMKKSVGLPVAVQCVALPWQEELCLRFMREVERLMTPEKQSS
Chain of human MAGL (Q99685 whole entry): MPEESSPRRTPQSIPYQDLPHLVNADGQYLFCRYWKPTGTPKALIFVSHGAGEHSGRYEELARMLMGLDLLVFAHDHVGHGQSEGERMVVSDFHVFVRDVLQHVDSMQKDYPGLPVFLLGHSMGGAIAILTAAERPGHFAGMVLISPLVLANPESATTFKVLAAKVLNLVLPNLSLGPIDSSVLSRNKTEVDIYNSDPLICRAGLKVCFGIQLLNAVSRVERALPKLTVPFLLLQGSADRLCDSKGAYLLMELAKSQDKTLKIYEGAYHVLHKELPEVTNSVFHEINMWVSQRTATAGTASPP

Structure (SMILES): O=C(c1cc(O)ccc1F)N1CC2(CC(n3cc(C(F)(F)F)c(-c4ccccc4F)n3)C2)C1 [Compound 473, (2-fluoro-5-hydroxyphenyl) {6-[3-(o-fluorophenyl)-4-(trifluoromethyl)-1-pyrazolyl]-2-aza-2-spiro[3.3]heptyl}methanone]
- A: degree to which MAGL enzymatic activity returned following washout [1]: 41
- AUClast [2]: 0.46442 µg·h/mL
- Cmax [2]: 171.59 ng/g
- Kp at 0.5 h [3]: 1.44
- Mean 2AG Concentration in Brain [4]: 17.38 nmol/g
- IC50 [5]: > 10 µM
